According to patent publication US12129244B2, “Modulators of Mas-related G-protein receptor X2 and related products and methods” (Escient Pharmaceuticals, Inc., priority 2022, dated 2024):
pIC50: −log10 of the molar value.

What was measured:
human MRGPRX2 = biological target: T1, human MRGPRX2 (Homo sapiens, UniProt Q96LB1); assay: MRGPRX2 activity: IP-One HTRF antagonist assay in CHO cells versus Cortistatin-14; assay type: cell-based; conditions: CHO cells stably expressing human MRGPRX2; versus 0.3 uM Cortistatin-14 agonist; IP-1 HTRF
T1 construct: expressed in transfected cells
T1 sequence (Q96LB1 1-330): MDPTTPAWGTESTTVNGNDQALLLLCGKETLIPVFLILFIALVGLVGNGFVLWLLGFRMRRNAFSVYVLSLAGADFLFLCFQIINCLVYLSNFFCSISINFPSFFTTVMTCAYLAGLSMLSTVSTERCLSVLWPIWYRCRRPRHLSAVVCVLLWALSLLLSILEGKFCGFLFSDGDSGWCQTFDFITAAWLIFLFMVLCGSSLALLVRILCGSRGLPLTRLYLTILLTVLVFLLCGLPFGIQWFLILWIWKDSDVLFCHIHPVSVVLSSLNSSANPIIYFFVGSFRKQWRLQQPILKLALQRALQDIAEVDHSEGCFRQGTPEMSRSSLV
Description: CHO cells stably transfected to express human MRGPRX2 were maintained in an incubator at 37° C. with 5% CO2 and grown in F12 (HAM) media with 10% fetal bovine serum (FBS), 1% Glutamax, 1% penicillin/streptomycin, 800 μg/mL Geneticin (G418), and 300 μg/mL Hygromycin B.
Cells were plated in a 384-well assay plate at 20,000 cells per well in 12 μL of Opti-MEM and kept in an incubator overnight. On the day of the assay, compounds solubilized at 10 mM in DMSO were added as a 10-point curve (30 uM final top concentration with 1:3 serial dilutions) using a Tecan D300E digital dispenser. Agonists were diluted in assay buffer (final concentrations of 5.7 mM Tris-HCl, 43 mM NaCl, 50 mM LiCl, pH=8) and 2 μL of the agonist Cortistatin-14 (CPC Scientific, catalog CORT-002) are added to each well. Final concentrations of agonists were 0.3 μM Cortistatin. Final concentrations of DMSO were kept consistent across the plate. Plates were incubated in the dark for 1 h at 37° C. and then for 1 h at room temperature. IP-1 standards and HTRF detection reagents were added according to the IP-One-Gq Kit purchased from Cisbio (part number 62IPAPEJ) and incubated in the dark for 1 h at room temperature. The plate was read on a Molecular Devices SpectraMax iD5 plate reader. The HTRF ratio was calculated from the raw data and graphed using GraphPad Prism to calculate an IC50 value for each compound.
The activity ranges are denoted as follows: “+++++” denotes antagonist activity <100 nM; “++++” denotes antagonist activity between 100 and 500 nM; “+++” denotes activity between 501 and 1000 nM; “[…]” denotes activity between 1001 and 2500 nM; and “+” denotes activity >2500 nM

Human LAD2 cells = assay: Mast Cell Beta-Hexosaminidase Release Assay; assay type: cell-based; conditions: 500 nM Cortistatin-14, read-out: MRGPRX2 Antagonist Activity
Description: Human LAD2 cells (NIH) were maintained in an incubator at 37° C. with 5% CO2 and cultured in StemPro-34 serum-free media (Gibco 10639011) supplemented with 2 mM L-glutamine, 100 U/ml penicillin, […] streptomycin and 100 ng/ml SCF (Invitrogen PEP0860), at a concentration of 2-5×10^5 cells/mL, with hemidepletion every 1-2 weeks.
Cells were transferred to SCF-Free medium at 2.5×10^5 cells/mL and kept in an incubator overnight. On the day of the assay, cells were washed twice in Assay Buffer (final concentrations 10 mM HEPES, 137 mM NaCl, 5.6 mM D-glucose, 2.7 mM KCl, 1 mM MgCl, 1.8 mM CalCl2, 0.4 mM Na2HPO4·7H2O, 0.04% BSA, pH=7.4) and plated in a 96-well v-bottom plate at 20,000 cells per well in 80 μL Assay Buffer. Antagonist compounds solubilized at 10 mM in DMSO were diluted in Assay Buffer to 10× final desired concentrations as a 10-point curve (10 μM final top concentration with 1:3 serial dilutions) and 10 μL added per well. Plates were then incubated for 1 hour at 37° C. Agonists were diluted in Assay Buffer to 10× desired concentrations and 10 μL of the appropriate agonist added to each well. The final concentration of Cortistatin-14 (Tocris 3374) used in antagonist assays was 500 nM. Final concentrations of DMSO were kept consistent across the plate. Plates were then incubated in a warm air oven for 30 minutes at 37° C., followed by centrifugation at 4° C. for 5 minutes at 450×g. 50 μL supernatant from each well was then transferred to a 96-well flat bottom plate containing 100 μL substrate solution per well (3.5 mg/mL p-Nitrophenyl-N-acetyl-β-D-glucosaminide (Sigma 487052) in Citrate Buffer containing a final concentration of 40 mM Citric Acid, 20 mM Na2HPO4·7H2O, pH=4.5). To the cell pellets left in the remaining assay buffer, 150 μL 0.1% Triton-X-100 was then added to each well, resuspended by pipetting up and down, and 50 μL cell lysates transferred to a second 96-well flat bottom plate containing 100 μL substrate solution per well. Plates containing transferred supernatant and cell lysates were then incubated in a warm air oven for 90 minutes at 37° C. After incubation, 50 μL of 400 mM Glycine buffer (pH 10.7) was added into each well and the plate was read on a Molecular Devices SpectraMax iD5 plate reader (absorbance at 405 nm with reference filter at 620 nm). After background subtraction, the percentage degranulation (percent beta-hexosaminidase release) was calculated as 100×(supernatant values)/(supernatant+lysate values), followed by analysis using GraphPad Prism software to calculate an IC50 value for each compound.
The activity ranges are denoted as follows: “+++++” denotes antagonist activity <100 nM; “++++” denotes antagonist activity between 100 and 500 nM; “+++” denotes activity between 501 and 1000 nM; “++” denotes activity between 1001 and 2500 nM; and “+” denotes activity >2500 nM.

[1] = Mouse Pharmacokinetics Studies (50 mg/kg oral gavage, plasma LC-MS/MS); assay type: in vivo; conditions: Male C57BL/6 mice, non-fasted; for AUC(0-t) / Cmax / Tmax: mouse; for Tmax: read-out: PK: Tmax
Description: Compounds were formulated in 5% DMSO, 5% Solutol, and 90% PBS without Ca and Mg (pH 7.4) at a concentration of 5 mg/mL. Male C57BL/6 mice (n=3/compound) were administered a 50 mg/kg dose of each compound by oral gavage under a non-fasted condition. Blood samples were collected via the saphenous vein onto K2-EDTA at 0.25, 0.5, 1, 2, 4, 8 and 24 hours after dosing, and plasma was prepared and stored at −80° C. until analysis. Plasma sample preparation for analysis was done by protein precipitation using acetonitrile (including Verapamil as an internal standard) followed by centrifugation. Compound concentrations were determined in extracted plasma using LC-MS/MS relative to a 12-point standard curve covering the 1 to 4000 nM range. Non-compartmental analysis using Phoenix WinNonlin was used to estimate pharmacokinetic parameters including area under the curve, clearance, and half-life. The administered dose was confirmed by analysis of residual dosing material by UPLC-UV relative to a single point calibration sample.

Row | SMILES | pIC50 (human MRGPRX2) | pIC50 (Human LAD2 cells) | AUC 0-24 [1] [µM·h] | AUC(0-t) [1] [µM·h] | Cmax [1] [µM] | Tmax [1] [h]
1 | CS(=O)(=O)Nc1cccc(C(=O)N[C@@H]2CCC[C@H](Nc3cc(C(F)(F)F)nc4ccc(Cl)cc34)C2)c1 (stereo in doubt) [Example 14, N-((1R,3S)-3-((6-chloro-2-(trifluoromethyl)quinolin-4-yl)amino)cyclohexyl)-3-(methylsulfonamido)benzamide] | > 7.00 | > 7.00 | – | – | – | –
2 | COc1ccc(C(=O)N[C@@H]2CCC[C@H](Nc3cc(C(F)(F)F)nc4ccc(Cl)cc34)C2)cc1 [Example 1, N-((1R,3S)-3-((6-chloro-2-(trifluoromethyl)quinolin-4-yl)amino)cyclohexyl)-4-methoxybenzamide] | – | > 7.00 | 78 | 78 | 6.1 | 8
3 | COc1ccc(C(=O)N[C@@H]2CCC[C@H](Nc3cc(C(F)(F)F)nc4ccc(C)cc34)C2)cc1 [Example 1-3] | > 7.00 | 6.30 to 7.00 | 83 | 83 | 13 | 0.83
4 | O=C(N[C@@H]1CCC[C@H](Nc2cc(C(F)(F)F)nc3ccccc23)C1)c1ccc(F)cc1 [Example 1-8] | – | < 5.60 | 650 | 650 | 48 | 8
5 | N#Cc1cccc(C(=O)N[C@@H]2CCC[C@H](Nc3cc(C(F)(F)F)nc4ccccc34)C2)c1 [Example 3-4] | – | 5.60 to 6.00 | 230 | 230 | 30 | 3.3
6 | Nc1ncc(C(=O)N[C@@H]2CCC[C@H](Nc3cc(C(F)(F)F)nc4ccc(Cl)cc34)C2)cn1 [Example 15, 2-amino-N-[(1R,3S)-3-{[6-chloro-2-(trifluoromethyl)quinolin-4-yl]amino}cyclohexyl]pyrimidine-5-carboxamide] | – | > 7.00 | 140 | 140 | 36 | 1
7 | O=C(N[C@@H]1CCC[C@H](Nc2cc(C(F)(F)F)nc3ccc(Cl)cc23)C1)c1cn(CC(F)(F)F)nc1Cl [Example 30, 3-chloro-N-((1R,3S)-3-((6-chloro-2-(trifluoromethyl)quinolin-4-yl)amino)cyclohexyl)-1-(2,2,2-trifluoroethyl)-1H-pyrazole-4-carboxamide] | > 7.00 | > 7.00 | 150 | 150 | 13 | 0.5
8 | CC(C)(O)Cn1cc(C(=O)N[C@@H]2CCC[C@H](Nc3cc(C(F)(F)F)nc4ccc(Cl)cc34)C2)c(Cl)n1 [Example 31, 3-chloro-N-[(1R,3S)-3-[[6-chloro-2-(trifluoromethyl)-4-quinolyl]amino]cyclohexyl]-1-(2-hydroxy-2-methylpropyl)pyrazole-4-carboxamide] | > 7.00 | > 7.00 | 740 | 740 | 74 | 1.7
9 | N#Cc1nn(CC(F)(F)F)cc1C(=O)N[C@@H]1CCC[C@H](Nc2cc(C(F)(F)F)nc3ccc(Cl)cc23)C1 [Example 32, N-[(1R,3S)-3-[[6-chloro-2-(trifluoromethyl)-4-quinolyl]amino]cyclohexyl]-3-cyano-1-(2,2,2-trifluoroethyl)pyrazole-4-carboxamide] | > 7.00 | > 7.00 | 390 | 390 | 39 | 4.7

Further lines, results first:

Row | pIC50 (human MRGPRX2) | pIC50 (Human LAD2 cells) | AUC 0-24 [1] [µM·h] | AUC(0-t) [1] [µM·h] | Cmax [1] [µM] | Tmax [1] [h] | SMILES
10 | > 7.00 | > 7.00 | – | – | – | – | O=C(N[C@@H]1CCC[C@H](Nc2cc(C(F)(F)F)nc3ccc(Cl)cc23)C1)c1cccc2ncsc12 [Example 4-225]
11 | > 7.00 | > 7.00 | – | – | – | – | CNc1ccc(C(=O)N[C@@H]2CCC[C@H](Nc3cc(C(F)(F)F)nc4ccc(F)cc34)C2)cc1 [Example 4-303]
12 | > 7.00 | > 7.00 | – | – | – | – | CCS(=O)(=O)Nc1cccc(C(=O)N[C@@H]2CCC[C@H](Nc3cc(C(F)(F)F)nc4ccc(F)cc34)C2)c1 [Example 4-304]
13 | > 7.00 | > 7.00 | 640 | 640 | 61 | 1.3 | Cn1cc(C(=O)N[C@@H]2CCC[C@H](Nc3cc(C(F)(F)F)nc4ccc(Cl)cc34)C2)cn1 [Example 4-400]
14 | > 7.00 | > 7.00 | 140 | 140 | 11 | 4 | COc1ccc(C(=O)N[C@@H]2CCC[C@H](Nc3cc(C(F)(F)F)nc4ccc(Cl)cc34)C2)cn1 [Example 4-414]
15 | > 7.00 | > 7.00 | – | – | – | – | O=C(N[C@@H]1CCC[C@H](Nc2cc(C(F)(F)F)nc3ccc(Cl)cc23)C1)c1ccc(B(O)O)cc1 [Example 4-430]
16 | > 7.00 | 6.30 to 7.00 | – | – | – | – | O=C(N[C@@H]1CCC[C@H](Nc2cc(C(F)(F)F)nc3ccc(Cl)cc23)C1)N1CC2(CC2)C1 [Example 8-9]
